Source: ChEMBL document CHEMBL5625249, “Optimization and antifungal activity of quinoline derivatives linked to chalcone moiety combined with FLC against Candida albicans” (Eur J Med Chem, 2023)
The source made the active and inactive calls. The calls are words filed in the database; no cut-off is given here.

Assays:
Candida albicans [1] = test: Synergistic antifungal activity against FLC-resistant Candida albicans ATCC 14053 assessed as inhibition of hyphal formation by measuring down regulation of ECE1 gene expression at 1 ug/ml measured after 16 to 18 hrs in presence of fluconazole by qRT-PCR analysis; type: functional, organism-based; conditions: dose 1.0 µg/ml, time 16-18 hrs
Candida albicans [2] = test: Antifungal activity against clinical FLC-resistant Candida albicans 187 measured after 24 hrs by microdilution method; type: functional
[3] = Cytotoxicity against human 16-HBE cells assessed as cell survival at 90 ug/ml measured after 24 hrs by MTS assay relative to control; type: toxicity, cell-based; conditions: 16-HBE cells (16HBE14o-), at 90 µg/mL, read-out: Survival
Candida albicans [4] = test: Synergistic antifungal activity against FLC-resistant Candida albicans ATCC 14053 cultured in spider medium assessed as inhibition of hyphal formation at 1 ug/ml measured after 4 to 8 hrs in presence of fluconazole by inverted microscopy; type: functional, organism-based; conditions: dose 1.0 µg/ml, time 4-8 hrs
Candida albicans [5] = test: Synergistic antifungal activity against clinical FLC-resistant Candida albicans 808 assessed as fractional inhibitory concentration index measured after 24 hrs by microdilution method; type: functional
Candida albicans [6] = test: In vivo antifungal activity against FLC-resistant Candida albicans ATCC 14053 infected in Balb/c mouse assessed as removal of colonized fungi at 15 mg/kg, ig measured after 6 days by H and E staining based histopathological analysis; type: functional, organism-based; conditions: time 6.0 day
Candida albicans [7] = test: Synergistic antifungal activity against FLC-sensitive Candida albicans SC5314 measured after 24 hrs in presence of fluconazole by microdilution method; type: functional
[8] = Toxicity in Balb/c mouse assessed as weight loss at 7.5 to 15 mg/kg, ig measured daily for 6 days in presence of fluconazole; type: organism-based; conditions: in vivo, po, 144 h, dose 7.5-15 mg/kg, time 6 day
Candida albicans [9] = test: Synergistic antifungal activity against FLC-resistant Candida albicans ATCC 14053 assessed as inhibition of hyphal formation by measuring down regulation of RAS1 gene expression at 1 ug/ml measured after 16 to 18 hrs in presence of fluconazole by qRT-PCR analysis; type: functional, organism-based; conditions: dose 1.0 µg/ml, time 16-18 hrs
Candida albicans [10] = test: Antifungal activity against clinical FLC-resistant Candida albicans 4574 measured after 24 hrs by microdilution method; type: functional
Candida albicans [11] = test: In vivo antifungal activity against FLC-resistant Candida albicans ATCC 14053 infected in Balb/c mouse assessed as increase in organ coefficients of spleen at 7.5 to 15 mg/kg, ig measured after 6 days in presence of fluconazole; type: functional, organism-based; conditions: dose 7.5-15 mg/kg, time 6.0 day
Candida albicans [12] = test: In vivo antifungal activity against FLC-resistant Candida albicans ATCC 14053 infected in Balb/c mouse assessed as reduction in kidney fungal load at 7.5 to 15 mg/kg, ig measured after 6 days in presence of fluconazole; type: functional, organism-based; conditions: dose 7.5-15 mg/kg, time 6.0 day
Candida albicans [13] = test: In vivo antifungal activity against FLC-resistant Candida albicans ATCC 14053 infected in Balb/c mouse assessed as reduction in severity of lesions in lungs at 15 mg/kg, ig measured after 6 days by H and E staining based histopathological analysis; type: functional, organism-based; conditions: time 6.0 day
Candida albicans [14] = test: Synergistic antifungal activity against clinical FLC-resistant Candida albicans 3511 measured after 24 hrs by microdilution method; type: functional
Candida albicans [15] = test: Induction of mitochondrial membrane potential loss in FLC-resistant Candida albicans ATCC 14053 at 1 ug/mL measured after 16 to 18 hrs in presence of fluconazole by JC-1 staining based fluorescence assay; type: functional, organism-based; conditions: dose 1.0 µg/ml, time 16-18 hrs
Candida albicans [16] = test: Synergistic antifungal activity against clinical FLC-resistant Candida albicans 4574 measured after 24 hrs by microdilution method; type: functional
Candida albicans [17] = test: Synergistic antifungal activity against FLC-resistant Candida albicans ATCC 14053 assessed as inhibition of rhodamine 6G efflux measured within 30 mins in presence of fluconazole by Rhodamine 6G staining based fluorescence assay; type: functional, organism-based
Candida albicans [18] = test: In vivo antifungal activity against FLC-resistant Candida albicans ATCC 14053 infected in Balb/c mouse assessed as survival rate at 7.5 to 15 mg/kg, ig measured daily for 6 days in presence of fluconazole (Rvb < 20%); type: functional; conditions: dose 7.5-15 mg/kg, time 6 day
Candida albicans [19] = test: In vivo antifungal activity against FLC-resistant Candida albicans ATCC 14053 infected in Balb/c mouse assessed as reduction in internal fungal growth at 7.5 to 15 mg/kg, ig measured after 6 days in presence of fluconazole by H and E staining based histopathological analysis; type: functional, organism-based; conditions: dose 7.5-15 mg/kg, time 6.0 day
Candida albicans [20] = test: Synergistic antifungal activity against clinical FLC-resistant Candida albicans 3511 assessed as fractional inhibitory concentration index measured after 24 hrs by microdilution method; type: functional
Candida albicans [21] = test: Synergistic antifungal activity against FLC-resistant Candida albicans ATCC 14053 assessed as inhibition of hyphal formation by measuring down regulation of HWP1 gene expression at 1 ug/ml measured after 16 to 18 hrs in presence of fluconazole by qRT-PCR analysis; type: functional, organism-based; conditions: dose 1.0 µg/ml, time 16-18 hrs
Candida albicans [22] = test: Synergistic antifungal activity against clinical FLC-resistant Candida albicans 4508 measured after 24 hrs by microdilution method; type: functional
Candida albicans [23] = test: In vivo antifungal activity against FLC-resistant Candida albicans ATCC 14053 infected in Balb/c mouse assessed as restoration of kidney morphology at 7.5 to 15 mg/kg, ig measured after 6 days in presence of fluconazole by H and E staining based histopathological analysis; type: functional, organism-based; conditions: dose 7.5-15 mg/kg, time 6.0 day
Candida albicans [24] = test: Synergistic antifungal activity against FLC-resistant Candida albicans ATCC 14053 assessed as inhibition of hyphal formation by measuring down regulation of EFG1 gene expression at 1 ug/ml measured after 16 to 18 hrs in presence of fluconazole by qRT-PCR analysis; type: functional, organism-based; conditions: dose 1.0 µg/ml, time 16-18 hrs
[25] = Toxicity in Balb/c mouse assessed as weight loss at 15 mg/kg, ig measured daily for 6 days; type: organism-based; conditions: in vivo, po, 144 h, time 6 day
Candida albicans [26] = test: Synergistic antifungal activity against FLC-resistant Candida albicans ATCC 14053 assessed as inhibition of hyphal formation by measuring down regulation of ALS3 gene expression at 1 ug/ml measured after 16 to 18 hrs in presence of fluconazole by qRT-PCR analysis; type: functional, organism-based; conditions: dose 1.0 µg/ml, time 16-18 hrs
Candida albicans [27] = test: Synergistic antifungal activity against FLC-resistant Candida albicans ATCC 14053 cultured in SD +10% FBS liquid medium assessed as inhibition of hyphal formation at 1 ug/ml measured after 4 to 8 hrs in presence of fluconazole by inverted microscopy; type: functional, organism-based; conditions: dose 1.0 µg/ml, time 4-8 hrs
Candida albicans [28] = test: Antifungal activity against clinical FLC-resistant Candida albicans 3816 measured after 24 hrs by microdilution method; type: functional
Candida albicans [29] = test: In vivo antifungal activity against FLC-resistant Candida albicans ATCC 14053 infected in Balb/c mouse assessed as restoration of normal glomeruli morphology at 15 mg/kg, ig measured after 6 days by H and E staining based histopathological analysis; type: functional, organism-based; conditions: time 6.0 day
Candida albicans [30] = test: Antifungal activity against clinical FLC-resistant Candida albicans 800 measured after 24 hrs by microdilution method; type: functional
Candida albicans [31] = test: Synergistic antifungal activity against clinical FLC-resistant Candida albicans 4508 assessed as fractional inhibitory concentration index measured after 24 hrs by microdilution method; type: functional
Candida albicans [32] = test: Antifungal activity against FLC-resistant Candida albicans ATCC 14053 at 1 ug/mL measured over 48 hrs by time-killing assay; type: functional, organism-based; conditions: dose 1.0 µg/ml

CN1CCN(c2nc3ccccc3cc2/C=C/C(=O)c2ccc(N3CCN(Cc4ccc(C(F)(F)F)cc4)CC3)cc2)CC1
inhibition (Candida albicans [1]): Active
MIC80 (Candida albicans [2]): > 40 µg/mL
viability at 24 h, 90 ug/ml [3]: 76.5%
inhibition (Candida albicans [4]): Active
fractional inhibitory concentration index (FICI) (Candida albicans [5]): 0.01
Activity (Candida albicans [6]): inactive
MIC80 (Candida albicans [7]): 0.99 µg/mL
Activity [8]: Non-Toxic
inhibition (Candida albicans [9]): Active
MIC80 (Candida albicans [10]): > 40 µg/mL
Activity (Candida albicans [11]): Active
Activity (Candida albicans [12]): Active
Activity (Candida albicans [13]): inactive
MIC80 (Candida albicans [14]): 5.89 µg/mL
Activity (Candida albicans [15]): Active
MIC80 (Candida albicans [16]): 0.91 µg/mL
inhibition (Candida albicans [17]): inactive
Survival (Candida albicans [18]): 90%
Activity (Candida albicans [19]): Active
fractional inhibitory concentration index (FICI) (Candida albicans [20]): 0.15
inhibition (Candida albicans [21]): Active
MIC80 (Candida albicans [22]): 1.22 µg/mL
Activity (Candida albicans [23]): Active
inhibition (Candida albicans [24]): Active
Activity [25]: Non-Toxic
inhibition (Candida albicans [26]): Active
inhibition (Candida albicans [27]): Active
MIC80 (Candida albicans [28]): > 40 µg/mL
Activity (Candida albicans [29]): inactive
MIC80 (Candida albicans [30]): > 40 µg/mL
fractional inhibitory concentration index (FICI) (Candida albicans [31]): 0.03
Activity (Candida albicans [32]): inactive
